Test results published in patent US8119564B2, “Herbicidal control using sulfentrazone and metsulfuron” (FMC Corporation, priority 2009, dated 2012).

Experiments:
[1] = test system: ground ivy (Glechoma hederacea); assay: Post-emergent herbicidal evaluation on turf plots, ground ivy control; type: in vivo
Protocol: (§1) Test compositions containing sulfentrazone (Dismiss™ Turf Herbicide), metsulfuron methyl (BLADE™ Selective Herbicide For Turfgrass) and mixtures thereof, were diluted with water to provide the appropriate test rate concentrations.
(§2) The size of each experimental turf plot was 5 feet by 10 feet. The application of each test composition was performed with a pressurized back-pack sprayer, calibrated to spray 30 gallons per acre. Three replications were made for each test rate along with an untreated control plot.
(§3) Test weeds were about 3 inches tall at the time of treatment. Control of ground ivy (Glechoma hederacea) and field violet (Viola arvensis) was evaluated at 6, 14, 28, 40 and 55 days after treatment (DAT) for each test rate. In order t to provide a measure of the effectiveness of a herbicide's performance weed control ratings were based on visual observations of the presence or absence of various weeds or of symptoms (necrosis, wilting, curling of leaves, discoloration etc.) on weeds compared to lack of symptoms. Ratings are based on the 0 to 100 rating system, where 0 equals no control and 100 equals complete control, which generally makes use of direct-percentage figures. In this system the standard basis for comparison is an untreated weedy check. Counts are made of each weed species found in the untreated area of the study. This provides a basis to give a precise representation of both weed infestation and degree of control provided by various chemical treatments. Counts are made on randomly selected areas which are generally 1 square foot to 1 square yard in size. Ratings are made for each weed species found in the untreated treatments. For example, a random area in an untreated plot has 10 yellow nutsedge plants per square foot equaling 0% control. A treated plot has only 1 yellow nutsedge plant found in the randomly selected area equaling 90% control.
(§4) Compositions of the present invention were tested for herbicidal efficacy in the manner of Example 1. Table A below summarizes the test data for ratios of sulfentrazone to metsulfuron methyl that are outside the scope of the present invention. The Colby equation expected values are also in Table A.

[2] = test system: field violet (Viola arvensis); assay: Post-emergent herbicidal evaluation on turf plots, wild violet control; type: in vivo
Protocol: as §1, §2, §3, §4

[3] = 0.01 lb/ac, 6 DAT, NIS 0.25% V/V
[4] = 0.01 lb/ac, 14 DAT, NIS 0.25% V/V
[5] = 0.01 lb/ac, 28 DAT, NIS 0.25% V/V
[6] = 0.01 lb/ac, 40 DAT, NIS 0.25% V/V
[7] = 0.01 lb/ac, 55 DAT, NIS 0.25% V/V
[8] = 0.02 lb/ac, 6 DAT, NIS 0.25% V/V
[9] = 0.02 lb/ac, 14 DAT, NIS 0.25% V/V
[10] = 0.02 lb/ac, 28 DAT, NIS 0.25% V/V
[11] = 0.02 lb/ac, 40 DAT, NIS 0.25% V/V
[12] = 0.02 lb/ac, 55 DAT, NIS 0.25% V/V
[13] = 0.04 lb/ac, 6 DAT, NIS 0.25% V/V
[14] = 0.04 lb/ac, 14 DAT, NIS 0.25% V/V
[15] = 0.04 lb/ac, 28 DAT, NIS 0.25% V/V
[16] = 0.04 lb/ac, 40 DAT, NIS 0.25% V/V
[17] = 0.04 lb/ac, 55 DAT, NIS 0.25% V/V

Compound: Cc1nn(-c2cc(NS(C)(=O)=O)c(Cl)cc2Cl)c(=O)n1C(F)F [Sulfentrazone, N-[2,4-dichloro-5-[4-difluoromethyl-4,5-dihydro-3-methyl-5-oxo-1H-1,2,4-triazol-1-yl]phenyl]methanesulfonamide]
- % Control of Weeds, Ground Ivy Control ([1]; 0.125 lb/ac, 6 DAT): 11.7%
- % Control of Weeds, Ground Ivy Control ([1]; 0.125 lb/ac, 14 DAT): 10%
- % Control of Weeds, Ground Ivy Control ([1]; 0.125 lb/ac, 28 DAT): 0%
- % Control of Weeds, Ground Ivy Control ([1]; 0.125 lb/ac, 40 DAT): 0%
- % Control of Weeds, Ground Ivy Control ([1]; 0.125 lb/ac, 55 DAT): 0%
- % Control of Weeds, Ground Ivy Control ([1]; 0.25 lb/ac, 6 DAT): 10%
- % Control of Weeds, Ground Ivy Control ([1]; 0.25 lb/ac, 14 DAT): 13.3%
- % Control of Weeds, Ground Ivy Control ([1]; 0.25 lb/ac, 28 DAT): 0%
- % Control of Weeds, Ground Ivy Control ([1]; 0.25 lb/ac, 40 DAT): 0%
- % Control of Weeds, Ground Ivy Control ([1]; 0.25 lb/ac, 55 DAT): 0%
- % Control of Weeds, Ground Ivy Control ([1]; 0.38 lb/ac, 6 DAT): 11.7%
- % Control of Weeds, Ground Ivy Control ([1]; 0.38 lb/ac, 14 DAT): 6.7%
- % Control of Weeds, Ground Ivy Control ([1]; 0.38 lb/ac, 28 DAT): 3.3%
- % Control of Weeds, Ground Ivy Control ([1]; 0.38 lb/ac, 40 DAT): 0%
- % Control of Weeds, Ground Ivy Control ([1]; 0.38 lb/ac, 55 DAT): 0%
- % Control of Weeds, Wild Violet Control ([2]; 0.125 lb/ac, 6 DAT): 5%
- % Control of Weeds, Wild Violet Control ([2]; 0.125 lb/ac, 14 DAT): 0%
- % Control of Weeds, Wild Violet Control ([2]; 0.125 lb/ac, 28 DAT): 0%
- % Control of Weeds, Wild Violet Control ([2]; 0.125 lb/ac, 40 DAT): 0%
- % Control of Weeds, Wild Violet Control ([2]; 0.125 lb/ac, 55 DAT): 0%
- % Control of Weeds, Wild Violet Control ([2]; 0.25 lb/ac, 6 DAT): 5%
- % Control of Weeds, Wild Violet Control ([2]; 0.25 lb/ac, 14 DAT): 0%
- % Control of Weeds, Wild Violet Control ([2]; 0.25 lb/ac, 28 DAT): 0%
- % Control of Weeds, Wild Violet Control ([2]; 0.25 lb/ac, 40 DAT): 0%
- % Control of Weeds, Wild Violet Control ([2]; 0.25 lb/ac, 55 DAT): 0%
- % Control of Weeds, Wild Violet Control ([2]; 0.38 lb/ac, 6 DAT): 1.7%
- % Control of Weeds, Wild Violet Control ([2]; 0.38 lb/ac, 14 DAT): 0%
- % Control of Weeds, Wild Violet Control ([2]; 0.38 lb/ac, 28 DAT): 10%
- % Control of Weeds, Wild Violet Control ([2]; 0.38 lb/ac, 40 DAT): 0%
- % Control of Weeds, Wild Violet Control ([2]; 0.38 lb/ac, 55 DAT): 23.3%

Compound: COC(=O)c1ccccc1S(=O)(=O)NC(=O)Nc1nc(C)nc(OC)n1 [Metsulfuron Methyl, methyl 2-[[[[(4-methoxy-6-methyl-1,3,5-triazin-2-yl)amino]carbonyl]amino]sulfonyl]benzoate]
- % Control of Weeds, Ground Ivy Control [1, 3]: 5%
- % Control of Weeds, Ground Ivy Control [1, 4]: 33%
- % Control of Weeds, Ground Ivy Control [1, 5]: 83%
- % Control of Weeds, Ground Ivy Control [1, 6]: 96%
- % Control of Weeds, Ground Ivy Control [1, 7]: 97%
- % Control of Weeds, Ground Ivy Control [1, 8]: 0%
- % Control of Weeds, Ground Ivy Control [1, 9]: 20%
- % Control of Weeds, Ground Ivy Control [1, 10]: 75%
- % Control of Weeds, Ground Ivy Control [1, 11]: 94%
- % Control of Weeds, Ground Ivy Control [1, 12]: 100%
- % Control of Weeds, Ground Ivy Control [1, 13]: 0%
- % Control of Weeds, Ground Ivy Control [1, 14]: 36.7%
- % Control of Weeds, Ground Ivy Control [1, 15]: 90%
- % Control of Weeds, Ground Ivy Control [1, 16]: 97%
- % Control of Weeds, Ground Ivy Control [1, 17]: 100%
- % Control of Weeds, Wild Violet Control [2, 3]: 0%
- % Control of Weeds, Wild Violet Control [2, 4]: 0%
- % Control of Weeds, Wild Violet Control [2, 5]: 58.3%
- % Control of Weeds, Wild Violet Control [2, 6]: 63.3%
- % Control of Weeds, Wild Violet Control [2, 7]: 66.7%
- % Control of Weeds, Wild Violet Control [2, 8]: 0%
- % Control of Weeds, Wild Violet Control [2, 9]: 3.3%
- % Control of Weeds, Wild Violet Control [2, 10]: 50%
- % Control of Weeds, Wild Violet Control [2, 11]: 75%
- % Control of Weeds, Wild Violet Control [2, 12]: 86.7%
- % Control of Weeds, Wild Violet Control [2, 13]: 0%
- % Control of Weeds, Wild Violet Control [2, 14]: 0%
- % Control of Weeds, Wild Violet Control [2, 15]: 51.7%
- % Control of Weeds, Wild Violet Control [2, 16]: 66.7%
- % Control of Weeds, Wild Violet Control [2, 17]: 66.7%
